# Starred links: 1 amine or outer side, 2 acyl side, 3 side chain; linkers in the order of their positions; H or OH if unused. Positions of bridges follow the written chain, without caps; N, C: chain ends. Non-standard residues stand in square brackets, D forms with d. Residues, ends and D or L forms follow the SMILES beside them. *: point of attachment. hPhe(3-Cl-4-CF3) = N[C@@H](CCc1ccc(C(F)(F)F)c(Cl)c1)C(=O)O; hPhe(3-F,4-CF3) = N[C@@H](CCc1ccc(C(F)(F)F)c(F)c1)C(=O)O; NMePhe(4-CF3) = CN[C@@H](Cc1ccc(C(F)(F)F)cc1)C(=O)O; X15 = COc1cc(CC[C@H](N[*:1])C(=O)[*:2])cc(Cl)c1Cl; NMeAbu(4,4,4-F3) = CN[C@@H](CC(F)(F)F)C(=O)O; NMePhe(4-Cl) = CN[C@@H](Cc1ccc(Cl)cc1)C(=O)O; NMePhe(4-Me) = CN[C@@H](Cc1ccc(C)cc1)C(=O)O; NMePhe(2-Cl) = CN[C@@H](Cc1ccccc1Cl)C(=O)O; NMedβ3hAla = C[C@H](CC(=O)[*:2])N(C)[*:1]; NMeGly(cPent) = CN[C@H](C(=O)O)C1CCCC1; Phe(3-I) = N[C@@H](Cc1cccc(I)c1)C(=O)O; NMeGly(cBu) = CN[C@H](C(=O)O)C1CCC1; NMeCha = CN[C@@H](CC1CCCCC1)C(=O)O; NMeChg = CN[C@H](C(=O)O)C1CCCCC1; NMeI = CC[C@H](C)[C@H](NC)C(=O)O; X7 = O=C(CN(c1ccsc1)[*:1])[*:2]; NMeD = CN[C@@H](CC(=O)O)C(=O)O; NMeL = CN[C@@H](CC(C)C)C(=O)O; NPrAla = CCCN[C@@H](C)C(=O)O; NMeNva = CCC[C@H](NC)C(=O)O; NMeV = CN[C@H](C(=O)O)C(C)C; d(β3hA) = C[C@@H](N)CC(=O)O; NMeS = CN[C@@H](CO)C(=O)O; Morpholide = C1CN(*)CCO1; NMeA = CN[C@@H](C)C(=O)O; Nle = CCCC[C@H](N)C(=O)O; Piperidide = C1CCN(*)CC1; Pyrrolidide = C1CCN(*)C1; Ac5c = NC1(C(=O)O)CCCC1; Aze = O=C(O)[C@@H]1CCN1; Ac4c = NC1(C(=O)O)CCC1; Sar = CNCC(=O)O; Propyl = CCC*
# What was measured:
# [1] = molecular target: T1, Kras and SOS1 (biotin-tagged human Kras loaded with GDP, His-tagged human SOS1) (Homo sapiens, UniProt P01116, G12D); test: Protein-protein interaction inhibition between Kras and SOS1 (KrasGl2D-SOS PPI) using AlphaScreen; format: binding; details: AlphaScreen; biotin-tagged human Kras loaded with GDP, His-tagged human SOS1; read-out: KRAS G12D-SOS PPI IC50
# T1 construct: made in house; host or cells: E. coli (stated for Kras only)
# T1 sequence (P01116 1-188 isoform P01116-2 G12D): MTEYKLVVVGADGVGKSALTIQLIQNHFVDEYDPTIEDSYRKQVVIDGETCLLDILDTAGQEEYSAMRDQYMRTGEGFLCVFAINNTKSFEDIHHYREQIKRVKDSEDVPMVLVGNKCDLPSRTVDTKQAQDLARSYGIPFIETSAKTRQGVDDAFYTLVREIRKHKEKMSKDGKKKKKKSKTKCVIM
# In short: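 Read-out is acceptor-bead light at 520-620 nm, arising when 680 nm-irradiated nickel donor beads pass singlet oxygen to streptavidin acceptors. The bead pair links His-tagged SOS1 with biotin-tagged, GDP-bound Kras from E. coli.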
# [2] = test system: Human pancreatic cancer cell line AsPC-1; test: Measurement of AsPC-1 cell growth inhibition (AsPC-1 CGI); format: cell-based; details: 96 h
# In short: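 AsPC-1 cells in 15% FBS RPMI-1640 were exposed to test compound for 96 hours at 37° C, with CellTiter-Glo as endpoint.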
SMILES,IC50 [1] [nM],IC50 [2] [nM]
"CC[C@H](C)[C@@H]1NC(=O)[C@H](CC(C)C)N(C)C(=O)C[C@@H](C(=O)N2CCCCC2)N(C)C(=O)[C@H](C(C)C)N(C)C(=O)C2(CCCC2)NC(=O)[C@@H]2CCCN2C(=O)[C@H](CCc2ccc(C(F)(F)F)c(F)c2)NC(=O)CN(C)C(=O)[C@H](Cc2ccc(Cl)cc2)N(C)C(=O)CN(C)C(=O)CN(C)C1=O [Compound 229] ([NMeL]I[Sar][Sar][NMePhe(4-Cl)][Sar][hPhe(3-F,4-CF3)]P[Ac5c][NMeV][NMeD]-Piperidide; lactam N-11)",6.7,100 to 500
"CCCOC[C@H]1C(=O)N(C)CC(=O)N[C@@H](CCc2ccc(C(F)(F)F)c(Cl)c2)C(=O)N2CCC[C@H]2C(=O)NC2(CCCC2)C(=O)N(C)[C@@H](C2CCCCC2)C(=O)N(C)[C@H](C(=O)N2CCOCC2)CC(=O)N(C)[C@@H](CC(F)(F)F)C(=O)N[C@@H]([C@@H](C)CC)C(=O)N(C)CC(=O)N(C)CC(=O)N1C [Compound 445] ([NMeAbu(4,4,4-F3)]I[Sar][Sar][NMeS](Propyl)[Sar][hPhe(3-Cl-4-CF3)]P[Ac5c][NMeChg][NMeD]-Morpholide; lactam N-11)",0.67,100 to 500
CC[C@H](C)[C@@H]1NC(=O)[C@H](C)N(C)C(=O)C[C@@H](C(=O)N2CCCCC2)N(C)C(=O)[C@H](C2CCC2)N(C)C(=O)C2(CCCC2)NC(=O)CN(c2ccsc2)C(=O)[C@H](CCc2ccc(C(F)(F)F)c(Cl)c2)NC(=O)CN(C)C(=O)[C@H](CC2CCCCC2)N(C)C(=O)CN(C)C(=O)CN(C)C1=O [Compound 2149] ([NMeA]I[Sar][Sar][NMeCha][Sar][hPhe(3-Cl-4-CF3)][X7][Ac5c][NMeGly(cBu)][NMeD]-Piperidide; lactam N-11),4,> 500
CC[C@H](C)[C@@H]1NC(=O)[C@H](CC(C)C)N(C)C(=O)C[C@@H](C(=O)N(C)C)N(C)C(=O)[C@H](C2CCCCC2)N(C)C(=O)C2(CCCC2)NC(=O)[C@@H]2CCCN2C(=O)[C@H](CCc2ccc(C(F)(F)F)c(Cl)c2)NC(=O)CN(C)C(=O)[C@H](Cc2ccc(C)cc2)N(C)C(=O)CN(C)C(=O)CN(C)C1=O [Compound 1762] ([NMeL]I[Sar][Sar][NMePhe(4-Me)][Sar][hPhe(3-Cl-4-CF3)]P[Ac5c][NMeChg][NMeD]-NMe2; lactam N-11),0.37,20 to 50
CCCC[C@@H]1NC(=O)[C@H](Cc2cccc(I)c2)NC(=O)CN(C)C(=O)[C@H](Cc2ccc(Cl)cc2)N(C)C(=O)CN(C)C(=O)CN(C)C(=O)[C@H]([C@@H](C)CC)NC(=O)[C@H](CC(C)C)N(C)C(=O)C[C@@H](C(=O)N2CCCCC2)N(C)C(=O)[C@H](CC(C)C)NC(=O)[C@H](Cc2ccccc2Cl)N(C)C1=O [Compound 168] ([NMeL]I[Sar][Sar][NMePhe(4-Cl)][Sar][Phe(3-I)][Nle][NMePhe(2-Cl)]L[NMeD]-Piperidide; lactam N-11),29,100 to 500
CC[C@H](C)[C@@H]1NC(=O)[C@H](CC(C)C)N(C)C(=O)C[C@@H](C)NC(=O)[C@H](C2CCCC2)N(C)C(=O)C2(CCC2)NC(=O)[C@@H]2CCCN2C(=O)[C@H](CCc2ccc(C(F)(F)F)c(Cl)c2)NC(=O)CN(C)C(=O)[C@H](Cc2ccc(C(F)(F)F)cc2)N(C)C(=O)CN(C)C(=O)CN(C)C1=O [Compound 1508] (cyclo([Ac4c][NMeGly(cPent)][d(β3hA)][NMeL]I[Sar][Sar][NMePhe(4-CF3)][Sar][hPhe(3-Cl-4-CF3)]P)),1.3,100 to 500
CCCN1C(=O)C[C@@H](C)N(C)C(=O)[C@H](C(C)C)N(C)C(=O)C2(CCCC2)NC(=O)[C@@H]2CCCN2C(=O)[C@H](CCc2ccc(C(F)(F)F)c(Cl)c2)NC(=O)CN(C)C(=O)[C@H](CC2CCCCC2)N(C)C(=O)CN(C)C(=O)CN(C)C(=O)[C@H]([C@@H](C)CC)NC(=O)[C@@H]1C [Compound 824] (cyclo([Ac5c][NMeV][NMedβ3hAla][NPrAla]I[Sar][Sar][NMeCha][Sar][hPhe(3-Cl-4-CF3)]P)),5.6,100 to 500
CC[C@H](C)[C@@H]1NC(=O)[C@H](C)N(C)C(=O)C[C@@H](C(=O)N2CCCCC2)N(C)C(=O)[C@H](C(C)C)N(C)C(=O)C2(CCCC2)NC(=O)[C@@H]2CCCN2C(=O)[C@H](CCc2cc(Cl)c(Cl)c(OC)c2)NC(=O)CN(C)C(=O)[C@H](CC2CCCCC2)N(C)C(=O)CN(C)C(=O)CN(C)C1=O [Compound 2061] ([NMeA]I[Sar][Sar][NMeCha][Sar][X15]P[Ac5c][NMeV][NMeD]-Piperidide; lactam N-11),21,> 500
CC[C@H](C)[C@@H]1NC(=O)[C@H](CC(C)C)N(C)C(=O)C[C@@H](C(=O)N(C)C)N(C)C(=O)[C@H]([C@@H](C)CC)N(C)C(=O)C2(CCCC2)NC(=O)[C@H](Cc2ccc(C)cc2)N(C)C(=O)[C@H](CCc2ccc(C(F)(F)F)c(Cl)c2)NC(=O)CN(C)C(=O)[C@H](Cc2ccc(C)cc2)N(C)C(=O)[C@@H]2CCN2C(=O)[C@H](C)N(C)C1=O [Compound 340] ([NMeL]I[NMeA][Aze][NMePhe(4-Me)][Sar][hPhe(3-Cl-4-CF3)][NMePhe(4-Me)][Ac5c][NMeI][NMeD]-NMe2; lactam N-11),4.7,20 to 50
CCC[C@H]1C(=O)N(C)[C@H](C(=O)N2CCCCC2)CC(=O)N(C)[C@@H](CC(C)C)C(=O)N[C@@H]([C@@H](C)CC)C(=O)N(C)CC(=O)N(C)CC(=O)N(C)[C@@H](CC2CCCCC2)C(=O)N(C)CC(=O)N[C@@H](CCc2ccc(C(F)(F)F)c(Cl)c2)C(=O)N2CCC[C@H]2C(=O)NC2(CCCC2)C(=O)N1C [Compound 548] ([NMeL]I[Sar][Sar][NMeCha][Sar][hPhe(3-Cl-4-CF3)]P[Ac5c][NMeNva][NMeD]-Piperidide; lactam N-11),1.6,100 to 500
CC[C@H](C)[C@@H]1NC(=O)[C@H](CC(C)C)N(C)C(=O)C[C@@H](C(=O)N2CCCCC2)N(C)C(=O)[C@H](C2CCC2)N(C)C(=O)C2(CCCC2)NC(=O)[C@@H]2CCCN2C(=O)[C@H](CCc2ccc(C(F)(F)F)c(Cl)c2)NC(=O)CN(C)C(=O)[C@H](CC2CCCCC2)N(C)C(=O)CN(C)C(=O)CN(C)C1=O [Compound 1128] ([NMeL]I[Sar][Sar][NMeCha][Sar][hPhe(3-Cl-4-CF3)]P[Ac5c][NMeGly(cBu)][NMeD]-Piperidide; lactam N-11),2.1,100 to 500
CC[C@H](C)[C@@H]1NC(=O)[C@H](CC(C)C)N(C)C(=O)C[C@@H](C)NC(=O)[C@H](C(C)C)N(C)C(=O)C2(CCCC2)NC(=O)[C@@H]2CCCN2C(=O)[C@H](CCc2ccc(C(F)(F)F)c(Cl)c2)NC(=O)CN(C)C(=O)[C@H](CC2CCCCC2)N(C)C(=O)CN(C)C(=O)CN(C)C1=O [Compound 1457] (cyclo([Ac5c][NMeV][d(β3hA)][NMeL]I[Sar][Sar][NMeCha][Sar][hPhe(3-Cl-4-CF3)]P)),11,100 to 500
CC[C@H](C)[C@@H]1NC(=O)[C@H](CC(C)C)N(C)C(=O)C[C@@H](C(=O)N2CCCC2)N(C)C(=O)[C@H](C2CCCCC2)N(C)C(=O)C2(CCCC2)NC(=O)[C@@H]2CCCN2C(=O)[C@H](CCc2ccc(C(F)(F)F)c(Cl)c2)NC(=O)CN(C)C(=O)[C@H](CC2CCCCC2)N(C)C(=O)[C@@H]2CCN2C(=O)[C@H](C)N(C)C1=O [Compound 1726] ([NMeL]I[NMeA][Aze][NMeCha][Sar][hPhe(3-Cl-4-CF3)]P[Ac5c][NMeChg][NMeD]-Pyrrolidide; lactam N-11),0.68,20 to 50

# Reference: US12371454B2, “Cyclic peptide compound having Kras inhibitory action” (priority 2019, dated 2025)
